From publication PMC9981206 (Cancer Research Communications, 2022)
“And” between values parts separate entries of the source, which are not always exact repeats. Identical values can stand only once. Like-named read-outs stand apart in the source and are kept apart here.

Key:
[1] = Mouse pharmacokinetic analysis; assay type: in vivo; conditions: CD-1 mice; for MRT last: read-out: MRT(0-24); for CL/F: read-out: Cl or Cl/F (converted); for bioavailability: read-out: F (fraction absorbed/bioavailability)
Protocol: The pharmacokinetic analyses were performed according to the standard protocols of Medicilon as previously described ([22, 27, 32]). […] The same vehicle and oral–twice daily treatment regime were used for all other experiments. Samples were collected after 15 and 30 minutes plus 1, 2, 4, and 6 hours for group 1, and after 6.5, 8, 10, and 24 hours for group 2.

[2] = Dose escalation experiment (acute toxicity, MTD); conditions: 500, 1,000, 1,500, or 2,000 mg/kg oral twice daily, single male CD-1 mice
Protocol: The dose escalation experiment was performed in single male CD-1 mice (CRL: 022, RRID: IMSR_CRL: 022, Charles River) at BSL BIOSERVICE/Eurofins using their standard protocol. […] Body weight was recorded daily.

[3] = mouse, plasma, 0.4 mg/kg IV BID
[4] = mouse, plasma, 100 mg/kg PO BID

With CCOc1ccc(-c2nnc([C@H]3C[C@H](NC(=O)c4cccc5nccnc45)C3)n2-c2ccccc2F)nc1 [OM-153] the Cmax2 ([1]; 10 mg/kg PO BID) was 2,700 ng/mL, the “Cmax2 (plasma concentration after the second dose)” value ([1]; 10 mg/kg oral twice daily) was 5.3 µM and the “plasma concentration after 24 hours” value ([1]; 10 mg/kg oral twice daily) was “below the detection threshold”. The Cmax2 ([1]; 100 mg/kg PO BID) was 20,000 ng/mL, the “Cmax2 (plasma concentration after the second dose)” value ([1]; 100 mg/kg oral twice daily) was 39.2 µM and the half-life [1, 3] was 0.59 h. It also gave an MRT last [1, 3] of 3.6 h, a half-life ([1]; mouse, plasma, 2 mg/kg IV BID) of 0.56 h and an MRT last ([1]; mouse, plasma, 2 mg/kg IV BID) of 3.5 h. It also gave a half-life ([1]; mouse, plasma, 10 mg/kg PO BID) of 2.7 h, a CL/F ([1]; mouse, plasma, 10 mg/kg PO BID) of 16.7 mL/min/kg and a bioavailability ([1]; mouse, plasma, 10 mg/kg PO BID) of 100%. It also gave an MRT last ([1]; mouse, plasma, 10 mg/kg PO BID) of 5.8 h, a half-life [1, 4] of 5.9 h and a CL/F [1, 4] of 18.3 mL/min/kg. For the same molecule, the bioavailability [1, 4] was 130%, the MRT last [1, 4] was 8.4 h and the concentration at 24 h ([1]; mouse, plasma, 100 mg/kg oral twice daily, read-out: plasma concentration after 24 hours) was 1900 ng/mL and 3.7 µM. For the same molecule, the “clinical signs of systemic toxicity” value [2] was “No clinical signs of systemic toxicity”.
